According to PMC8009478, “Novel Curcumin-Diethyl Fumarate Hybrid as a Dualistic GSK-3β Inhibitor/Nrf2 Inducer for the Treatment of Parkinson’s Disease” (ACS Chemical Neuroscience, 2020):

How the values were obtained:
GSK-3α/β = test: Phosphorylation of GSK-3α/β (Ser21/9) by Western blotting; conditions: SH-SY5Y, 5 μM, after 1 h of incubation
PAMPA-BBB assay = conditions: for prediction (penetration in the CNS): from PAMPA-BBB Pe; for Papp at 2.5 h: pig, PAMPA, pH 7.4
GSK-3β = GSK-3β (Homo sapiens, UniProt P49841); test: Kinetic study of GSK-3β inhibition, competition with ATP (ADP-Glo Kinase Assay); assay type: biochemical; conditions: ATP 1 to 50 μM; inhibitors 5 and 10 μM; substrate 25 μM; double reciprocal plot
Chain of GSK-3β (P49841 whole entry): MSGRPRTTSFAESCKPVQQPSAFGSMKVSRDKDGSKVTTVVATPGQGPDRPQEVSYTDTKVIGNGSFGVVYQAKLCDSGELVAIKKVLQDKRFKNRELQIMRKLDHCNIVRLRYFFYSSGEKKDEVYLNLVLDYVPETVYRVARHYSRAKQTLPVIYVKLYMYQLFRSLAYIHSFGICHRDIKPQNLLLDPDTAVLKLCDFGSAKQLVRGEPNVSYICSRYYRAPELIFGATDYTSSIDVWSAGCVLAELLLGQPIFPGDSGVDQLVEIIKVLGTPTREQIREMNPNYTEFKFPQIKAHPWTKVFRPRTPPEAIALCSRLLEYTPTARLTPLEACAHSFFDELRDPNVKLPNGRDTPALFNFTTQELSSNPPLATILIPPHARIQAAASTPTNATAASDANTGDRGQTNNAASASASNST
Protocol: Figure 2 Kinetic data for the curcumin-DEF hybrids 5 and 6. In the reaction mixture, the concentration of compounds employed is reported in the plot, the concentration of the substrate is constant (25 μM), and the concentration of ATP changes from 1 to 50 μM. Each point is the mean of two different experiments analyzed in triplicate.
Kinetic experiments were performed using the ADP-Glo Kinase Assay,[42] in which ATP concentration varied from 1 to 50 μM, the concentrations of inhibitors employed were 5 and 10 μM, while the concentration of GS2 was kept constant (25 μM). Graphs (Figure 2) report the double reciprocal plot of the data.

SH-SY5Y cells = test: Neuroprotection against 6-OHDA, MTT assay; assay type: cell-based, human; conditions: 5 μM for 24 h, then 6-OHDA 100 μM for 2 h
Protocol: Figure 6 Effects of 4 and 5 on neurotoxicity induced by OAβ1–42 oligomers and 6-OHDA in SH-SY5Y cells. (A) Cells were incubated with 4 and 5 (5 μM, for 24 h) and then treated with OAβ1–42 (10 μM, for 4 h). (B) Cells were incubated with compounds 4 and 5 (5 μM, for 24 h), then treated with 6-OHDA (100 μM, for 2 h), and then starved in complete medium for 22 h. The neurotoxicity was evaluated by an MTT assay. Data are expressed as percentages of neurotoxicity versus cells treated with Aβ1–42 oligomers or 6-OHDA and reported as mean ± SEM of at least three independent experiments (* p < 0.05 versus cells treated with 6-OHDA at one-way ANOVA with the Dunnett post hoc test).
The neurotoxin 6-OHDA provides an in vitro lesion model by inducing CNS oxidative damage and neuroinflammation suitable for assessing the neuroprotective potential of PD therapeutics.[34] Consistent with these effects, 6-OHDA (100 μM, for 2 h) was employed to induce damage in SH-SY5Y cells previously treated with 4 and 5 (5 μM, for 24 h).
Then, cells were treated with 6-hydroxydopamine (6-OHDA, 100 μM) for 2 h and starved in complete medium for 22 h. The neuroprotective activity was measured by using the MTT assay as previously described.[47] Data are expressed as a percentage of neurotoxicity versus untreated cells.

Papp at 2.5 h (PAMPA-BBB assay)	mechanism of inhibition as regards competition with ATP (GSK-3β)	SMILES	phospho-GSK-3α/β (Ser21/9) levels (GSK-3α/β)	prediction (penetration in the CNS) (PAMPA-BBB assay)	protection against 6-OHDA-induced decrease in cell viability (SH-SY5Y cells)
4.8 ± 0.4 ×10⁻⁶ cm/s	noncompetitive inhibitors of ATP binding	CCOC(=O)/C=C/C(C(=O)/C=C/c1ccc(OC)cc1)=C(O)\C=C\c1ccc(OCc2ccccc2)cc1 [Compound 5, Ethyl (2E,4Z,6E)-7-(4-(Benzyloxy)phenyl)-5-hydroxy-4-((E)-3-(4-methoxyphenyl)acryloyl)hepta-2,4,6-trienoate]	increase phospho-GSK-3α/β (Ser21/9) levels	CNS + (compounds showing a Pe value superior to 2.26 × 10^–6 cm s^–1 could be regarded as able to permeate the brain compartment and thus classified as (CNS +))	mitigate the 6-OHDA-induced decrease in cell viability
2.5 ± 0.3 ×10⁻⁶ cm/s		CCOC(=O)/C=C/C(C(=O)/C=C/c1ccc(OC)cc1)=C(O)\C=C\c1ccc(OC)cc1 [Compound 4, Ethyl (2E,4Z,6E)-5-Hydroxy-7-(4-methoxyphenyl)-4-((E)-3-(4-methoxyphenyl)acryloyl)hepta-2,4,6-trienoate]		CNS + (compounds showing a Pe value superior to 2.26 × 10^–6 cm s^–1 could be regarded as able to permeate the brain compartment and thus classified as (CNS +))	mitigate the 6-OHDA-induced decrease in cell viability
